# Measured values from patent publication EP0437846A2, “Solutions of decaplanin salts, their preparation and their use, as well as crystalline decaplanin salts, their preparation and their use” (HOECHST AKTIENGESELLSCHAFT, priority 1990, dated 1991).
# Where a name gives a salt, the structure may show the parent alone. Read-outs that look alike come from different tables or passages of the source.
# Assays:
# [1] = viscosity / gelling of aqueous salt solutions; type: physicochemical; conditions: result in words
# Description: 10,2 g des nach Beispiel 3 gewonnenen Gefriertrocknungsproduktes werden in 90 ml Wasser gelöst. Sie ergeben 100 ml einer Flüssigkeit mit einer Viskosität von weniger als 3 Centipoise (cP) bei 20 °C.
# 10 g des nach Beispiel 3 gewonnenen Produktes werden in 40 ml Wasser aufgenommen und durch Zugabe von […] Eisessig eine Decaplanindiacetatlösung hergestellt. Die Lösung hat einen pH-Wert von 4,2. Ihre Viskosität beträgt weniger als 3 cP bei 20 °C.
# [2] = thermal stability of aqueous solution (80 °C, 20 h); type: physicochemical
# Text: Erfindungsgegenstand ist demzufolge eine wäßrige Lösung eines Decaplaninsalzes, ausgewählt aus der Gruppe der Decaplaninacetate, Decaplaninphosphate und Decaplanintartrate. Aus dieser Gruppe sind die Decaplaninacetate besonders bevorzugt. Die erfindungsgemäßen wässrigen Lösungen haben wie bereits erläutert den Vorteil, daß in ihnen das jeweilige Salz in relativ hoher Konzentration vorliegen kann, ohne daß das betreffende Salz ausfällt. […] So zeigt sich z.B. in einer 0,2 %igen wäßrigen Decaplaninmonoacetatlösung bei einer 20 stündigen Temperaturbelastung von 80 °C nur ein Wirkstoffverlust von weniger als 5 %; Vancomycinhydrochlorid hingegen weist bei einer analogen Behandlung nur noch einen Gehalt von etwa 25 % Vancomycinhydrochlorid auf. Die Instabilität des Vancomycins resultiert aus seiner Umwandlung zum sogenannten CDP (vgl. F. Sztaricskai und R. Bognar, Chemistry of the Vancomycin Group of Antibiotics. In:Recent Developments in the Chemistry of Natural Carbon Compounds, Vol. 10, PP 93-201, 1984, Akademiai Kiado, Budapest, 1983). Es ist besonders überraschend, daß die erfindungsgemäßen Decaplaninsalze diese Umwandlung nicht in diesem Ausmaß erleiden. Weiterhin besonders überraschend ist die bereits erwähnte, im Gegensatz zum Vancomycinhydrochlorid stehende gute lokale Verträglichkeit der erfindungsgemäßen wäßrigen Decaplaninsalzlösungen, die ohne besondere Vorsichtsmaßnahmen - wie langsame Injektion - injiziert werden können und auch subcutan verabreichbar sind.
# [3] = water
# [4] = in vivo
# solubility in water = conditions: result in words
# [5] = toxicity and tolerability on injection; conditions: result in words; for Verträglichkeit: injection
# isoelectric point = type: physicochemical
# [6] = commercial hydrochloride form, result in words; cited from earlier work
# [7] = general knowledge on the commercial form, cited from earlier work
compound,measurement,setting,value
Decaplaninacetat,Gelieren / Viskosität der wäßrigen Lösung,[1],dünnflüssig
same,Stabilität der Lösung,[2],stabil
same,Löslichkeit (Konzentration),[3],ca. 20 Gew.-%
same,Toxizität,[4],sehr geringe Toxizität
Decaplaninmonoacetat,Wirkstoffverlust,"[2]; water, 20 h",< 5%
Decaplanintartrate,Löslichkeit in Wasser,solubility in water,gutes Löslichkeitsverhalten
same,Verträglichkeit,[5],gute Verträglichkeit
same,Toxizität,[5],sehr geringe Toxizität
Hydrochlorid,Gelieren / Viskosität der wäßrigen Lösung,[1],zähflüssig
same,Löslichkeit in Wasser,solubility in water,nicht ausreichend löslich
Decaplanin,isoelektrischer Punkt,isoelectric point,"8,1 pH"
same,Löslichkeit in Wasser,solubility in water,relativ wenig wasserlöslich
same,Verträglichkeit,[5],gute Verträglichkeit
same,Toxizität,[5],sehr geringe Toxizität
CN[C@H](CC(C)C)C(=O)N[C@H]1C(=O)N[C@@H](CC(N)=O)C(=O)N[C@H]2C(=O)N[C@H]3C(=O)N[C@H](C(=O)N[C@H](C(=O)O)c4cc(O)cc(O)c4-c4cc3ccc4O)[C@H](O)c3ccc(c(Cl)c3)Oc3cc2cc(c3O[C@@H]2O[C@H](CO)[C@@H](O)[C@H](O)[C@H]2O[C@H]2C[C@](C)(N)[C@H](O)[C@H](C)O2)Oc2ccc(cc2Cl)[C@H]1O [Vancomycinhydrochlorid],remaining at 20 h,"[2]; water, remaining content after analogous treatment (20 h, 80 °C), read-out: Gehalt",~25%
same,Löslichkeit,[6],relativ wenig löslichen Form
same,Nebenwirkungen,[7],"lokale Nekrosen, das ""red man-Syndrom"" sowie Oto- und Nephrotoxizität"
same,Verträglichkeit,[7]; injection,schlecht verträglich
Decaplaninphosphate,Verträglichkeit,[4],gute Verträglichkeit
same,Toxizität,[5],sehr geringe Toxizität
